Source: ChEMBL document CHEMBL1201862, “PubChem BioAssay data set” (2004)
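Following 48 hours of exposure in 96-well plates, responses at five concentrations were used to interpolate endpoints linearly. GI50 = concentration required for 50% inhibition of growth.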 Calls of active or inactive are those of the source. Rule as the data show it: active = GI50 up to about 1.1 µM and inactive = higher.

Key:
Test in all cases: inhibition of tumour cell growth, NCI panel, 48 h
A498 = system: A498
BT-549 = system: BT-549
CAKI-1 = system: CAKI-1
CCRF-CEM = system: CCRF-CEM
COLO 205 = system: COLO 205
DU-145 = system: DU-145
HCC 2998 = system: HCC 2998
HCT-116 = system: HCT-116
HCT-15 = system: HCT-15
HL-60 = system: HL-60
HOP-62 = system: HOP-62
HT-29 = system: HT-29
Hs-578T = system: Hs-578T
IGROV-1 = system: IGROV-1
K562 = system: K562
KM12 = system: KM12
M14 = system: M14
MCF7 = system: MCF7
MDA-MB-231 = system: MDA-MB-231
MDA-MB-435 = system: MDA-MB-435
MDA-N = system: MDA-N
MOLT-4 = system: MOLT-4
Malme-3M = system: Malme-3M
NCI-H226 = system: NCI-H226
NCI-H23 = system: NCI-H23
NCI-H460 = system: NCI-H460
NCI-H522 = system: NCI-H522
NCI/ADR-RES = system: NCI/ADR-RES
OVCAR-3 = system: OVCAR-3
OVCAR-4 = system: OVCAR-4
OVCAR-5 = system: OVCAR-5
OVCAR-8 = system: OVCAR-8
PC-3 = system: PC-3
RPMI-8226 = system: RPMI-8226
RXF 393 = system: RXF 393
SF-295 = system: SF-295
SK-MEL-28 = system: SK-MEL-28
SK-MEL-2 = system: SK-MEL-2
SK-MEL-5 = system: SK-MEL-5
SK-OV-3 = system: SK-OV-3
SN12C = system: SN12C
SNB-19 = system: SNB-19
SNB-75 = system: SNB-75
SR = system: SR
T47D = system: T47D
U-251 = system: U-251
UACC-62 = system: UACC-62
UO-31 = system: UO-31
786-0 = system: 786-0
A549 = system: A549
ACHN = system: ACHN
EKVX = system: EKVX
HOP-92 = system: HOP-92
LOX IMVI = system: LOX IMVI
SF-268 = system: SF-268
SF-539 = system: SF-539
SW-620 = system: SW-620
TK-10 = system: TK-10
UACC-257 = system: UACC-257

In the case of O=C(O)c1cc([N+](=O)[O-])cc2c(=O)c3cnccc3[nH]c12, the GI50 (A498) is reported as > 100 µM (inactive), the GI50 (BT-549) is reported as > 100 µM (inactive) and the GI50 (CAKI-1) is reported as > 100 µM (inactive). The GI50 (CCRF-CEM) was > 100 µM (inactive), the GI50 (COLO 205) was > 100 µM (inactive) and the GI50 (DU-145) was > 100 µM (inactive). For the same molecule, the GI50 (HCC 2998) was > 100 µM (inactive), the GI50 (HCT-116) was > 100 µM (inactive) and the GI50 (HCT-15) was greater than 100 µM. The GI50 (HL-60) was > 100 µM (inactive), the GI50 (HOP-62) was > 100 µM (inactive) and the GI50 (HT-29) was > 100 µM (inactive). The GI50 (Hs-578T) was > 100 µM (inactive), the GI50 (IGROV-1) was > 100 µM (inactive) and the GI50 (K562) was > 100 µM (inactive). For the same molecule, the GI50 (KM12) was > 100 µM (inactive), the GI50 (M14) was > 100 µM (inactive) and the GI50 (MCF7) was > 100 µM (inactive). The GI50 (MDA-MB-231) was > 100 µM (inactive), the GI50 (MDA-MB-435) was > 100 µM (inactive) and the GI50 (MDA-N) was > 100 µM (inactive). The GI50 (MOLT-4) was 54.8 µM (inactive), the GI50 (Malme-3M) was > 100 µM (inactive) and the GI50 (NCI-H226) was > 100 µM (inactive). For the same molecule, the GI50 (NCI-H23) was > 100 µM (inactive), the GI50 (NCI-H460) was > 100 µM (inactive) and the GI50 (NCI-H522) was > 100 µM (inactive). For the same molecule, the GI50 (NCI/ADR-RES) was > 100 µM (inactive), the GI50 (OVCAR-3) was > 100 µM (inactive) and the GI50 (OVCAR-4) was > 100 µM (inactive). For the same molecule, the GI50 (OVCAR-5) was > 100 µM (inactive), the GI50 (OVCAR-8) was > 100 µM (inactive) and the GI50 (PC-3) was 29.6 µM (inactive). The GI50 (RPMI-8226) was > 100 µM (inactive), the GI50 (RXF 393) was > 100 µM (inactive) and the GI50 (SF-295) was > 100 µM (inactive). The GI50 (SK-MEL-28) was > 100 µM (inactive), the GI50 (SK-MEL-2) was > 100 µM (inactive) and the GI50 (SK-MEL-5) was > 100 µM (inactive). The GI50 (SK-OV-3) was > 100 µM (inactive), the GI50 (SN12C) was > 100 µM (inactive) and the GI50 (SNB-19) was > 100 µM (inactive). The GI50 (SNB-75) was > 100 µM (inactive), the GI50 (SR) was > 100 µM (inactive) and the GI50 (T47D) was > 100 µM (inactive). The GI50 (U-251) was > 100 µM (inactive), the GI50 (UACC-62) was 65.2 µM (inactive) and the GI50 (UO-31) was > 100 µM (inactive).
COc1cc2c3c(n(Cc4ccccc4)c(=O)c2cc1OC)-c1ccccc1C3=O was tested, and the GI50 (786-0) was 93.5 µM (inactive), the GI50 (A549) was > 100 µM (inactive) and the GI50 (ACHN) was > 100 µM (inactive). For the same molecule, the GI50 (BT-549) was > 100 µM (inactive), the GI50 (CAKI-1) was 92.9 µM (inactive) and the GI50 (CCRF-CEM) was 17.9 µM (inactive). For the same molecule, the GI50 (COLO 205) was > 100 µM (inactive), the GI50 (DU-145) was > 100 µM (inactive) and the GI50 (EKVX) was > 100 µM (inactive). The GI50 (HCC 2998) was > 100 µM (inactive), the GI50 (HCT-116) was > 100 µM (inactive) and the GI50 (HCT-15) was greater than 100 µM. For the same molecule, the GI50 (HL-60) was > 100 µM (inactive), the GI50 (HOP-62) was > 100 µM (inactive) and the GI50 (HOP-92) was > 100 µM (inactive). For the same molecule, the GI50 (HT-29) was > 100 µM (inactive), the GI50 (Hs-578T) was 63.7 µM (inactive) and the GI50 (IGROV-1) was > 100 µM (inactive). For the same molecule, the GI50 (K562) was > 100 µM (inactive), the GI50 (KM12) was > 100 µM (inactive) and the GI50 (LOX IMVI) was > 100 µM (inactive). The GI50 (M14) was > 100 µM (inactive), the GI50 (MCF7) was > 100 µM (inactive) and the GI50 (MDA-MB-231) was > 100 µM (inactive). The GI50 (MDA-MB-435) was > 100 µM (inactive), the GI50 (MDA-N) was > 100 µM (inactive) and the GI50 (MOLT-4) was 20.5 µM (inactive). For the same molecule, the GI50 (Malme-3M) was > 100 µM (inactive), the GI50 (NCI-H226) was > 100 µM (inactive) and the GI50 (NCI-H23) was > 100 µM (inactive). The GI50 (NCI-H460) was 26.7 µM (inactive), the GI50 (NCI-H522) was > 100 µM (inactive) and the GI50 (NCI/ADR-RES) was > 100 µM (inactive). For the same molecule, the GI50 (OVCAR-3) was > 100 µM (inactive), the GI50 (OVCAR-4) was > 100 µM (inactive) and the GI50 (OVCAR-5) was > 100 µM (inactive). For the same molecule, the GI50 (OVCAR-8) was > 100 µM (inactive), the GI50 (PC-3) was > 100 µM (inactive) and the GI50 (RPMI-8226) was > 100 µM (inactive). For the same molecule, the GI50 (RXF 393) was > 100 µM (inactive), the GI50 (SF-268) was 82.2 µM (inactive) and the GI50 (SF-295) was > 100 µM (inactive). The GI50 (SF-539) was 90.2 µM (inactive), the GI50 (SK-MEL-28) was > 100 µM (inactive) and the GI50 (SK-MEL-2) was > 100 µM (inactive). The GI50 (SK-MEL-5) was > 100 µM (inactive), the GI50 (SN12C) was 57.1 µM (inactive) and the GI50 (SNB-19) was > 100 µM (inactive). The GI50 (SNB-75) was 32.3 µM (inactive), the GI50 (SR) was 4.1 µM (inactive) and the GI50 (SW-620) was > 100 µM (inactive). The GI50 (T47D) was > 100 µM (inactive), the GI50 (TK-10) was > 100 µM (inactive) and the GI50 (U-251) was 64 µM (inactive). The GI50 (UACC-257) was > 100 µM (inactive), the GI50 (UACC-62) was > 100 µM (inactive) and the GI50 (UO-31) was > 100 µM (inactive).
